Laboratory results as given in ChEMBL document CHEMBL1201862, “PubChem BioAssay data set” (2004).
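Results reflect a 48-hour exposure of cells in 96-well plates to compound at five concentrations. Abbreviation: GI50, concentration required for 50% inhibition of growth.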 The source made the active and inactive calls. No stated cut-off is given here; in the data, active = GI50 up to about 1.1 µM and inactive = higher.

Tests used:
Experiment in all cases: growth of human tumour cells (NCI), 48 h
[1] = system: UACC-62
[2] = system: KM-20L2
[3] = system: HT-29
[4] = system: DMS-114
[5] = system: OVCAR-4
[6] = system: Malme-3M
[7] = system: SF-539
[8] = system: HCT-116
[9] = system: M14
[10] = system: HCC 2998
[11] = system: CCRF-CEM
[12] = system: LOX IMVI
[13] = system: NCI-H226
[14] = system: NCI-H460
[15] = system: XF498
[16] = system: SK-MEL-2
[17] = system: LXFL 529
[18] = system: SF-268
[19] = system: RPMI-8226
[20] = system: HL-60
[21] = system: HCT-15
[22] = system: UO-31
[23] = system: SN12C
[24] = system: SW-620
[25] = system: CAKI-1
[26] = system: IGROV-1
[27] = system: SNB-78
[28] = system: A498
[29] = system: HOP-92
[30] = system: M19-MEL
[31] = system: SNB-75
[32] = system: RXF 393
[33] = system: EKVX
[34] = system: SK-MEL-28
[35] = system: COLO 205
[36] = system: MOLT-4
[37] = system: KM12
[38] = system: OVCAR-5
[39] = system: SR
[40] = system: 786-0
[41] = system: K562
[42] = system: SNB-19
[43] = system: A549
[44] = system: TK-10
[45] = system: HOP-18
[46] = system: OVCAR-3
[47] = system: HOP-62
[48] = system: OVCAR-8
[49] = system: ACHN
[50] = system: U-251
[51] = system: SF-295
[52] = system: UACC-257
[53] = system: DMS-273
[54] = system: SK-MEL-5
[55] = system: NCI-H23
[56] = system: DLD-1
[57] = system: SK-OV-3
[58] = system: NCI-H522

Compound: CCC12C=CCN3CCC4(c5cc(C6(C(=O)OC)CCCCCc7c6[nH]c6ccccc76)c(OC)cc5N(C)C4C(O)(C(=O)OC)C1OC(C)=O)C32 (configuration not stated)
- GI50 [1]: 1.64 µM (inactive)
- GI50 [2]: 2.03 µM (inactive)
- GI50 [3]: 0.562 µM (active)
- GI50 [4]: 2.38 µM (inactive)
- GI50 [5]: 2.95 µM (inactive)
- GI50 [6]: 1.87 µM (inactive)
- GI50 [7]: 2.25 µM (inactive)
- GI50 [8]: 2.9 µM (inactive)
- GI50 [9]: 2.64 µM (inactive)
- GI50 [10]: 2.04 µM (inactive)
- GI50 [11]: 1.97 µM (inactive)
- GI50 [12]: 1.61 µM (inactive)
- GI50 [13]: 2.64 µM (inactive)
- GI50 [14]: 2.31 µM (inactive)
- GI50 [15]: 2.33 µM (inactive)
- GI50 [16]: 1.74 µM (inactive)
- GI50 [17]: 1.84 µM (inactive)
- GI50 [18]: 2.95 µM (inactive)
- GI50 [19]: 2.47 µM (inactive)
- GI50 [20]: 2.29 µM (inactive)
- GI50 [21]: 2.1 µM
- GI50 [22]: 2 µM (inactive)
- GI50 [23]: 3.63 µM (inactive)
- GI50 [24]: 3.3 µM (inactive)
- GI50 [25]: 2.7 µM (inactive)
- GI50 [26]: 2.16 µM (inactive)
- GI50 [27]: 2.78 µM (inactive)
- GI50 [28]: 2.4 µM (inactive)
- GI50 [29]: 2.26 µM (inactive)
- GI50 [30]: 2.51 µM (inactive)
- GI50 [31]: 2.3 µM (inactive)
- GI50 [32]: 1.64 µM (inactive)
- GI50 [33]: 3.57 µM (inactive)
- GI50 [34]: 2.23 µM (inactive)
- GI50 [35]: 2.93 µM (inactive)
- GI50 [36]: 2.14 µM (inactive)
- GI50 [37]: 2.55 µM (inactive)
- GI50 [38]: 1.9 µM (inactive)
- GI50 [39]: 2.54 µM (inactive)
- GI50 [40]: 2.29 µM (inactive)
- GI50 [41]: 2.82 µM (inactive)
- GI50 [42]: 3.15 µM (inactive)
- GI50 [43]: 3.02 µM (inactive)
- GI50 [44]: 2.39 µM (inactive)
- GI50 [45]: 2.34 µM (inactive)
- GI50 [46]: 3.83 µM (inactive)
- GI50 [47]: 3.72 µM (inactive)
- GI50 [48]: 3.06 µM (inactive)
- GI50 [49]: 1.61 µM (inactive)
- GI50 [50]: 2.08 µM (inactive)
- GI50 [51]: 1.91 µM (inactive)

Compound: NC(=S)N/C=C1\C(=O)Oc2ccccc2C1=O
- GI50 [1]: 47.2 µM (inactive)
- GI50 [2]: > 100 µM (inactive)
- GI50 [3]: > 100 µM (inactive)
- GI50 [52]: > 100 µM (inactive)
- GI50 [53]: > 100 µM (inactive)
- GI50 [4]: 48.4 µM (inactive)
- GI50 [5]: > 100 µM (inactive)
- GI50 [6]: 32.7 µM (inactive)
- GI50 [7]: 34 µM (inactive)
- GI50 [8]: 53.5 µM (inactive)
- GI50 [9]: 48.5 µM (inactive)
- GI50 [10]: 66.8 µM (inactive)
- GI50 [11]: > 100 µM (inactive)
- GI50 [12]: > 100 µM (inactive)
- GI50 [13]: 21.9 µM (inactive)
- GI50 [14]: > 100 µM (inactive)
- GI50 [54]: 42.3 µM (inactive)
- GI50 [55]: > 100 µM (inactive)
- GI50 [15]: 32.3 µM (inactive)
- GI50 [16]: 22.6 µM (inactive)
- GI50 [17]: 85.7 µM (inactive)
- GI50 [18]: 24.7 µM (inactive)
- GI50 [19]: > 100 µM (inactive)
- GI50 [20]: > 100 µM (inactive)
- GI50 [21]: 48 µM
- GI50 [22]: 27.5 µM (inactive)
- GI50 [23]: 37.2 µM (inactive)
- GI50 [24]: 75.5 µM (inactive)
- GI50 [25]: 20.7 µM (inactive)
- GI50 [26]: 63.4 µM (inactive)
- GI50 [27]: 94.2 µM (inactive)
- GI50 [28]: 51.4 µM (inactive)
- GI50 [56]: 31.2 µM (inactive)
- GI50 [29]: 35.5 µM (inactive)
- GI50 [30]: > 100 µM (inactive)
- GI50 [31]: 14.1 µM (inactive)
- GI50 [32]: 18.4 µM (inactive)
- GI50 [33]: > 100 µM (inactive)
- GI50 [34]: > 100 µM (inactive)
- GI50 [35]: > 100 µM (inactive)
- GI50 [36]: > 100 µM (inactive)
- GI50 [37]: > 100 µM (inactive)
- GI50 [38]: > 100 µM (inactive)
- GI50 [40]: 53.5 µM (inactive)
- GI50 [41]: > 100 µM (inactive)
- GI50 [42]: 68.5 µM (inactive)
- GI50 [57]: 51.2 µM (inactive)
- GI50 [43]: 97.1 µM (inactive)
- GI50 [44]: 90.4 µM (inactive)
- GI50 [45]: 39.2 µM (inactive)
- GI50 [46]: 37.3 µM (inactive)
- GI50 [48]: 56.5 µM (inactive)
- GI50 [49]: 28.9 µM (inactive)
- GI50 [50]: 43.8 µM (inactive)
- GI50 [58]: 69.2 µM (inactive)
- GI50 [51]: > 100 µM (inactive)
